Assay results as given in patent US8697725B2, “Tetrahydroquinoline derivatives and their pharmaceutical use” (GlaxoSmithKline LLC, priority 2009, dated 2014).
Structures can show the parent of a compound that is named as a salt.

tested on: TNFα; experiment: LPS Stimulated Whole Blood Measuring TNFα Levels Assay; type: cell-based; conditions: 24 h, LPS 200 ng/ml, immunoassay, read-out: pIC50, TNFα levels in LPS stimulated whole blood (converted)
Protocol: LPS Stimulated Whole Blood Measuring TNFα Levels Assay
Activation of monocytic cells by agonists of toll-like receptors such as bacterial lipopolysaccharide (LPS) results in production of key inflammatory mediators including TNFα. Such pathways are widely considered to be central to the pathophysiology of a range of auto-immune and inflammatory disorders.
Compounds to be tested are diluted to give a range of appropriate concentrations and 1 ul of the dilution stocks is added to wells of a 96 plate. Following addition of whole blood (130 ul) the plates are incubated at 37 degrees (5% CO2) for 30 min before the addition of 10 ul of 2.8 ug/ml lipopolysaccharides (LPS), diluted in complete RPMI 1640 (final concentration=200 ng/ml), to give a total volume of 140 ul per well. After further incubation for 24 hours at 37 degrees, 140 ul of PBS are added to each well. The plates are sealed, shaken for 10 minutes and then centrifuged (2500 rpm×10 min). 100 ul of the supernatant are removed and TNFα levels assayed by immunoassay (typically by MesoScale Discovery technology) either immediately or following storage at −20 degrees. Dose response curves for each compound was generated from the data and an IC50 value was calculated.

IC50 [µM]	Structure (SMILES)
≤ 6.31	CC(=O)N1c2ccc(-c3sc(C)nc3C)cc2[C@@H](NC(=O)OC(C)C)C[C@H]1C (racemic) [Example 32, 1-methylethyl[(cis)-1-acetyl-6-(2,4-dimethyl-1,3-thiazol-5-yl)-2-methyl-1,2,3,4-tetrahydro-4-quinolinyl]carbamate]
≤ 6.31	CC(=O)N1c2ccc(-c3cnc(N4CCNCC4)nc3)cc2[C@@H](NC(=O)OC(C)C)C[C@H]1C (racemic) [Example 44, 1-methylethyl {(cis)-1-acetyl-2-methyl-6-[2-(1-piperazinyl)-5-pyrimidinyl]-1,2,3,4-tetrahydro-4-quinolinyl}carbamate hydrochloride]
≤ 6.31	CC(=O)N1c2ccc(Br)cc2[C@H](NC(=O)OC(C)C)C[C@@H]1C [Example 4, 1-methylethyl[(2S,4R)-1-acetyl-6-bromo-2-methyl-1,2,3,4-tetrahydro-4-quinolinyl]carbamate]
≤ 6.31	CC(=O)N1c2ccc(-c3ccc(CN4CCCCC4)o3)cc2[C@@H](NC(=O)OC(C)C)C[C@H]1C (racemic) [Example 22, 1-methylethyl {(cis)-1-acetyl-2-methyl-6-[5-(1-piperidinylmethyl)-2-furanyl]-1,2,3,4-tetrahydro-4-quinolinyl}carbamate (formic acid salt)]
≤ 6.31	CC(=O)N1c2ccc(-c3cnn(CCN4CCC(N)CC4)c3)cc2[C@@H](NC(=O)OC(C)C)C[C@H]1C (racemic) [Example 39, 1-methylethyl((cis)-1-acetyl-6-{1-[2-(4-amino-1-piperidinyl)ethyl]-1H-pyrazol-4-yl}-2-methyl-1,2,3,4-tetrahydro-4-quinolinyl)carbamate dihydrochloride]
≤ 6.31	CC(=O)N1c2ccc(-c3ccc(N4CCN(C(=O)OC(C)(C)C)CC4)nc3)cc2[C@@H](NC(=O)OC(C)C)C[C@H]1C (racemic) [Example 8, 1,1-dimethylethyl 4-{5-[(cis)-1-acetyl-2-methyl-4-({[(1-methylethyl)oxy]carbonyl}amino)-1,2,3,4-tetrahydro-6-quinolinyl]-2-pyridinyl}-1-piperazinecarboxylate]
≤ 6.31	CC(=O)N1c2ccc(-c3ccc(CN4CCCCC4)cc3)cc2[C@H](N(C)C(=O)OC(C)C)C[C@@H]1C (racemic) [Example 42, formic acid-1-methylethyl {(cis)-1-acetyl-2-methyl-6-[4-(1-piperidinylmethyl)phenyl]-1,2,3,4-tetrahydro-4-quinolinyl}methylcarbamate (1:1)]
≤ 6.31	CC(=O)N1c2ccc(-c3ccc(CN4CCCCC4)cc3)cc2[C@@H](NC(=O)OC(C)(C)C)C[C@H]1C (racemic) [Example 17, 1,1-dimethylethyl {(cis)-1-acetyl-2-methyl-6-[4-(1-piperidinylmethyl)phenyl]-1,2,3,4-tetrahydro-4-quinolinyl}carbamate]
≤ 6.31	CC(=O)N1c2ccc(-c3cnn(CCN4CCCCC4)c3)cc2[C@@H](NC(=O)OC(C)C)C[C@H]1C (racemic) [Example 46, 1-methylethyl((cis)-1-acetyl-2-methyl-6-{1-[2-(1-piperidinyl)ethyl]-1H-pyrazol-4-yl}-1,2,3,4-tetrahydro-4-quinolinyl)carbamate hydrochloride]
≤ 6.31	CC(=O)N1c2ccc(Br)cc2[C@@H](NC(=O)OC2CCC2)C[C@H]1C (racemic) [Example 33, cyclobutyl[(cis)-1-acetyl-6-bromo-2-methyl-1,2,3,4-tetrahydro-4-quinolinyl]carbamate]
≤ 6.31	CC(=O)N1c2ccc(-c3csc(CN4CCCCC4)n3)cc2[C@@H](NC(=O)OC(C)C)C[C@H]1C (racemic) [Example 41, 1-methylethyl {(cis)-1-acetyl-2-methyl-6-[2-(1-piperidinylmethyl)-1,3-thiazol-4-yl]-1,2,3,4-tetrahydro-4-quinolinyl}carbamate]
≤ 6.31	CC(=O)N1c2ccc(-c3cnc(N4CCOCC4)nc3)cc2[C@@H](NC(=O)OC(C)C)C[C@H]1C (racemic) [Example 51, 1-methylethyl {(cis)-1-acetyl-2-methyl-6-[2-(4-morpholinyl)-5-pyrimidinyl]-1,2,3,4-tetrahydro-4-quinolinyl}carbamate hydrochloride]
≤ 6.31	CC(=O)N1c2ccc(-c3ccc(N4CCNCC4)nn3)cc2[C@@H](NC(=O)OC(C)C)C[C@H]1C (racemic) [Example 45, 1-methylethyl {(cis)-1-acetyl-2-methyl-6-[6-(1-piperazinyl)-3-pyridazinyl]-1,2,3,4-tetrahydro-4-quinolinyl}carbamate hydrochloride]
≤ 6.31	CNc1ccc(-c2ccc3c(c2)[C@@H](NC(=O)OC(C)C)C[C@@H](C)N3C(C)=O)cn1 (racemic) [Example 53, 1-methylethyl {(cis)-1-acetyl-2-methyl-6-[6-(methylamino)-3-pyridinyl]-1,2,3,4-tetrahydro-4-quinolinyl}carbamate hydrochloride]
